Laboratory results: patent US5389614A (Cassella AG, priority 1991, dated 1995)
Read-outs that look alike come from different tables or passages of the source.

How the values were obtained:
[1] = target: T1, fibrinogen receptor (glycoprotein IIb/IIIa) (Homo sapiens, UniProt P05106+P08514); assay: Inhibition of bonding of 125I-fibrinogen to its receptor on intact, gel-filtered human platelets; format: binding; settings: inhibition of 125I-fibrinogen bonding after stimulation with ADP (10 μM), read-out: K1 (μm), ADP stimulated
T1 construct: its receptor (glycoprotein IIb/IIIa) on intact, gel-filtered human platelets; endogenous in cells; host or cells: gel-filtered human platelets from donor blood, stimulated with ADP (10 µM)
T1 sequence (P08514 32-887 limits assumed): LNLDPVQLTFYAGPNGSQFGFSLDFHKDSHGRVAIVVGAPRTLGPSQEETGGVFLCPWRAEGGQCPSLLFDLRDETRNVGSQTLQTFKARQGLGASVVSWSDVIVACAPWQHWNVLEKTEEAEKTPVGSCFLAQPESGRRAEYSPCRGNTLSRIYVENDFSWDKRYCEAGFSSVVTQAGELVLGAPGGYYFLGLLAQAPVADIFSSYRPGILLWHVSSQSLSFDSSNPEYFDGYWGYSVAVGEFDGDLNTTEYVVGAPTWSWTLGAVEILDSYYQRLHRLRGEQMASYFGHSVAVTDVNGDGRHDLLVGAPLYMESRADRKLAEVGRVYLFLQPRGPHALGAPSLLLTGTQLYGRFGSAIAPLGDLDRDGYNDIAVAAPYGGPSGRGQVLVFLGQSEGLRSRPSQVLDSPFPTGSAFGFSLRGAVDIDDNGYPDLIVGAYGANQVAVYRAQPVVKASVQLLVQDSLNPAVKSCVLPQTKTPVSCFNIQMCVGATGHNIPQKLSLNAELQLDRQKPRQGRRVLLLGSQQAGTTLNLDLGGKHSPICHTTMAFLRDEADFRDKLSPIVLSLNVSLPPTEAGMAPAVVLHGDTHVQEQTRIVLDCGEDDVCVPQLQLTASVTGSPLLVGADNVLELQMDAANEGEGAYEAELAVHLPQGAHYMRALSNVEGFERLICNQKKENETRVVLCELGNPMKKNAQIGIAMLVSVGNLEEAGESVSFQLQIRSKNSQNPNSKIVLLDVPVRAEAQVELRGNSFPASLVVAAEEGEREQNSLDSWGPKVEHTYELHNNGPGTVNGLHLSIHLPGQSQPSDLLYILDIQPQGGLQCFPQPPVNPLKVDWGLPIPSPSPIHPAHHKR
T1 sequence (P08514 891-1039 partner limits assumed): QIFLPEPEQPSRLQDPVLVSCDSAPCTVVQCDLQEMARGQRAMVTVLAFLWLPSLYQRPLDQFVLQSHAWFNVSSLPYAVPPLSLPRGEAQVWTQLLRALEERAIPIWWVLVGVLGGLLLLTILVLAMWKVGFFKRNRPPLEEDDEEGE
T1 sequence (P05106 27-788): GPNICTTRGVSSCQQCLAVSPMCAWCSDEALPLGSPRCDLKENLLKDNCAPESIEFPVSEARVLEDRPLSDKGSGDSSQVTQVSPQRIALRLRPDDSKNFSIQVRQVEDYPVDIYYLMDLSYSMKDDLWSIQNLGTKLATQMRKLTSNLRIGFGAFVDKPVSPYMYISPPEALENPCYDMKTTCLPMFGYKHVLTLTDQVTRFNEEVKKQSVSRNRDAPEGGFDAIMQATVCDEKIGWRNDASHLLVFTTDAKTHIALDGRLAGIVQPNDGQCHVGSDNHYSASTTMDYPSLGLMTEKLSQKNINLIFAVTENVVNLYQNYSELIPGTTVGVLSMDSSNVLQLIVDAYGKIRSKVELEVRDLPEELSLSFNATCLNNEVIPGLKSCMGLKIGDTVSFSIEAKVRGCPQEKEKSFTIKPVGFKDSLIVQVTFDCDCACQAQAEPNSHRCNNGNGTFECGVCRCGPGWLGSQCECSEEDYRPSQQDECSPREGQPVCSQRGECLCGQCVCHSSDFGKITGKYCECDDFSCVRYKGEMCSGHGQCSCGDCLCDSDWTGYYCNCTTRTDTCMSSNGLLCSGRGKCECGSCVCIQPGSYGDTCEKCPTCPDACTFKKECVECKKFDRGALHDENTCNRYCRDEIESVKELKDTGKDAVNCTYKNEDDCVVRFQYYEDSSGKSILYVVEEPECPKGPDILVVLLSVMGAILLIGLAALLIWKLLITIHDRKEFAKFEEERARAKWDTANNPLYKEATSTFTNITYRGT
Protocol: (§1) The compounds are tested above all for their inhibiting action on blood platelet aggregation and the adhesion of fibrinogen to blood platelets.
(§2) Gel-filtered blood platelets from human donor blood activated with ADP or thrombin are used.
A) Inhibition of bonding of fibrinogen to its receptor (glycoprotein IIb/IIIa) on intact, gel-filtered human platelets by the compounds according to the invention is tested. The Ki value of the inhibition of the bonding of ^125 I-fibrinogen after stimulation with ADP (10 μM) is stated.
Literature: J. S. Bennett and G. Vilaire, J. Clin. Invest. 64 (1979), 1393-1401

[2] = test system: gel-filtered human platelets; assay: Inhibition of aggregation of gel-filtered human platelets after ADP or thrombin stimulation; format: cell-based; settings: platelet aggregation
Protocol: as §1, §2
B) As a functional test, the inhibition of aggregation of gel-filtered human platelets by the compounds according to the invention after ADP or thrombin stimulation is measured. The IC50 value of the inhibition is stated.

[3] = ADP stimulation, read-out: IC50 (μM), ADP-stimulated
[4] = thrombin stimulation, read-out: IC50 (μM), Thrombin-stimulated
[5] = Homo sapiens, ADP stimulation, read-out: IC50 (μM), ADP-stimulated
[6] = Homo sapiens, thrombin stimulation, read-out: IC50 (μM), Thrombin-stimulated

Row | SMILES | Ki [1] | IC50 [2, 3] | IC50 [2, 4] | IC50 [2, 5] | IC50 [2, 6]
1 | N=C(N)c1ccc(CC2NC(=O)N(CC(=O)NCCC(=O)O)C2=O)cc1 (racemic) [Example 6, [5-(S,R)-(4-Formamidino-benzyl) -2,4-dioxoimidazolidin-3-yl]-acetyl-β-alanine] | 1910 nM | 5.5 µM | 3 µM | – | –
2 | CC(C)[C@H](NC(=O)[C@H](CC(=O)O)NC(=O)CN1C(=O)NC(Cc2ccc(C(=N)N)cc2)C1=O)C(=O)O (stereo partly drawn) [Example 1, [5-(S,R )-(4-Formamidino-benzyl)-2,4-dioxoimidazolidin-3-yl]-acetyl-L-aspartyl-L-valine.] | 31 nM | 0.4 µM | 0.15 µM | – | –
3 | CC(C)[C@H](NC(=O)[C@H](CC(=O)O)NC(=O)CN1C(=O)[C@H](CCCNC(=N)N)N(C)C1=O)C(=O)O [Example 2] | 400 nM | – | – | 4.5 µM | 1.5 µM
4 | CC(C)[C@H](NC(=O)[C@H](CC(=O)O)NC(=O)CN1C(=O)N[C@@H](CCCCN)C1=O)C(=O)O [Example 3, [5-(S)-(4-Amino-butyl)-2,4-dioxoimidazolidin-3-yl]-acetyl-Asp-Val-OH] | – | 30 µM | 4 µM | – | –
5 | N=C(N)c1ccc(CC2NC(=O)N(CC(=O)N[C@@H](CC(=O)O)C(=O)N[C@H](C(=O)O)c3ccccc3)C2=O)cc1 (stereo partly drawn) [Example 5, [5-(S,R)-(4-Formamidino-benzyl) -2,4-dioxoimidazolidin-3-yl]-acetyl-L-aspartyl-L-phenylglycine] | 22 nM | 0.2 µM | 0.1 µM | – | –
6 | CC(C)[C@H](NC(=O)[C@H](CC(=O)O)NC(=O)CN1C(=O)N[C@@H](Cc2ccc(N)cc2)C1=O)C(=O)O [Example 7] | 2430 nM | – | – | – | –
7 | CC(C)[C@H](NC(=O)[C@H](CC(=O)O)NC(=O)CN1C(=O)N[C@@H](Cc2ccc(NC(=N)N)cc2)C1=O)C(=O)O [Example 8] | 710 nM | – | – | 6 µM | 3 µM
8 | CC(C)[C@H](NC(=O)[C@H](CC(=O)O)NC(=O)c1cccc(N2C(=O)N[C@@H](CCCNC(=N)N)C2=O)c1)C(=O)O [Example 11, 3-(5-(S)-(3-Guanidinopropyl)-2,4-dioxoimidazolidin-3-yl)benzoyl-L-aspartyl-L-valine] | 1870 nM | – | – | – | –
9 | CC[C@H](C)[C@H](NC(=O)[C@H](CC(=O)O)NC(=O)CN1C(=O)NC(Cc2ccc(C(=N)N)cc2)C1=O)C(=O)O (stereo partly drawn) [Example 12, (5-(R,S)-(4-Formamidinobenzyl)-2,4-dioxo-imidazolidin-3-yl)-acetyl-L-aspartyl-L-isoleucine] | 42 nM | 0.2 µM | 0.1 µM | – | –
10 | N=C(N)c1ccc(CC2NC(=O)N(CC(=O)N[C@@H](CC(=O)O)C(=O)N[C@@H](CCCCN)C(=O)O)C2=O)cc1 (stereo partly drawn) [Example 13, (5-(R, S)-(4-Formamidinobenzyl)-2,4-dioxo-imidazolidin-3-yl) -acetyl-L-aspartyl-L-lysine] | 42 nM | 0.35 µM | 0.4 µM | – | –
11 | N=C(N)c1ccc(CC2NC(=O)N(CC(=O)N[C@@H](CC(=O)O)C(=O)N[C@@H](Cc3ccccc3)C(=O)O)C2=O)cc1 (stereo partly drawn) [Example 14, (5-(R,S)-(4-Formamidinobenzyl)-2,4-dioxo-imidazolidin-3-yl)-acetyl-L-aspartyl-L-phenylalanine] | 270 nM | 0.55 µM | 0.3 µM | – | –
12 | NCc1ccc(C=C2NC(=O)N(CC(=O)N[C@@H](CC(=O)O)C(=O)N[C@H](C(=O)O)c3ccccc3)C2=O)cc1 [Example 15] | 280 nM | – | – | 0.7 µM | 0.45 µM
13 | C[C@@H](O)[C@H](NC(=O)[C@H](CC(=O)O)NC(=O)CN1C(=O)NC(Cc2ccc(C(=N)N)cc2)C1=O)C(=O)O (stereo partly drawn) [Example 16, (5-(R,S)-(4-Formamidinobenzyl)-2,4-dioxo-imidazolidin-3-yl) -acetyl-L-aspartyl-L-threonine] | 120 nM | 0.7 µM | 0.2 µM | – | –
14 | CCCCCCCCCCCCCCCCOC(=O)[C@@H](NC(=O)[C@H](CC(=O)O)NC(=O)CN1C(=O)NC(Cc2ccc(C(=N)N)cc2)C1=O)c1ccccc1 (some centres unmarked) [Example 17] | – | 4.5 µM | 4 µM | – | –
15 | NCc1ccc(CC2NC(=O)N(CC(=O)N[C@@H](CC(=O)O)C(=O)N[C@H](C(=O)O)c3ccccc3)C2=O)cc1 (stereo partly drawn) [Example 19, (5-(4-Aminomethylbenzyl)-2,4-dioxo-imidazolidin-3-yl)-acetyl-L-aspartyl-L-phenyglycine] | – | 7 µM | 2.5 µM | – | –
16 | CN(C(=O)[C@H](CC(=O)O)NC(=O)CN1C(=O)NC(Cc2ccc(C(=N)N)cc2)C1=O)[C@H](C(=O)O)c1ccccc1 (stereo partly drawn) [Example 20, (5-(R,S)-(4-Formamidinobenzyl)-2,4-dioxo-imidazolidin-3-yl)-acetyl-L-aspartyl-(N-methyl)-L-phenylglycine] | 1590 nM | 4.5 µM | 2.5 µM | – | –
17 | CC(C)[C@H](NC(=O)[C@H](CC(=O)O)NC(=O)CN1C(=O)NC(Cc2ccc(C(=N)N)cc2)C1=O)C(=O)OCc1ccccc1 (stereo partly drawn) [Example 21, (5-(R,S)-(4-Formamidinobenzyl) -2,4-dioxo-imidazolidin-3-yl) -acetyl-L-aspartyl-L-valine benzyl ester] | 240 nM | 0.7 µM | 0.3 µM | – | –
18 | N=C(N)c1ccc(CC2NC(=O)N(CC(=O)N[C@@H](CC(=O)O)C(=O)N[C@@H](Cc3c[nH]c4ccccc34)C(=O)O)C2=O)cc1 (stereo partly drawn) [Example 22, (5-(R,S)-(4-Formamidinobenzyl)-2,4-dioxo-imidazolidin-3-yl)-acetyl-L-aspartyl-L-tryptophan] | 140 nM | 0.8 µM | 0.25 µM | – | –
19 | CC(C)[C@H](NC(=O)[C@H](CC(=O)O)NC(=O)CCN1C(=O)N[C@@H](CCCCN)C1=O)C(=O)O [Example 32] | 2710 nM | – | – | 6 µM | 2 µM
